Molecular target: T1, Mcl-1 (Homo sapiens, UniProt Q07820)
T1 construct: gene MCL1; recombinant GST-Mcl-1
Assay: fluorescence polarization with recombinant GST-Mcl-1; supported by GST pull-down showing disruption of Mcl-1/Bak
Format: binding

T1 sequence (Q07820 whole entry): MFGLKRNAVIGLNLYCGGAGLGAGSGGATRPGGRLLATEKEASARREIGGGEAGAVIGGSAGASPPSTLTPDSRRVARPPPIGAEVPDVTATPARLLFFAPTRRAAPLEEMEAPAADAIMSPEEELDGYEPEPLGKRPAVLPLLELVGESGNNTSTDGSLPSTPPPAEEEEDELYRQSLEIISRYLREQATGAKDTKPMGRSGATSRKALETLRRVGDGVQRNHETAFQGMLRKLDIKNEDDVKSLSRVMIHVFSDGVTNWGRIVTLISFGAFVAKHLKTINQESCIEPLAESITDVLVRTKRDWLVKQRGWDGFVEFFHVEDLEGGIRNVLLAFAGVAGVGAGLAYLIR

- Ki: 450 ± 50 nM
Structure (SMILES): Cc1cc(Cl)ccc1NC(=O)C(=O)C(C(=O)c1ccc2ccccc2c1)C1OC(=O)c2ccccc21 (stereo not shown) [MI-238]
